Measured values: patent US20230287416A1, “COMBINATORY TREATMENT OF SMA WITH SARNA AND MRNA MODULATORS” (RACTIGEN THERAPEUTICS, priority 2020, published 2023)

Test system: SMN2 mRNA
Assay: RT-qPCR of SMN2FL and SMN2 Δ7 mRNA in GM03813 cells
Format: cell-based, human
Conditions: GM03813, 72 h, alone or in combination at 10 nM, RT-qPCR (Example 10, FIG. 12A)
Description: “GM03813 cells” refers to fibroblast cells provided by Coriell Institute for Medical Research. This cell line is described as SPINAL MUSCULAR ATROPHY, TYPE II; SMA2 SURVIVAL OF MOTOR NEURON 1, TELOMERIC; SMN1. The relevant gene is SMN1; the chromosomal location is 5q12.2-q13.3, the allelic variant is described as 1 exons 7 and 8 deleted, SPINAL MUSCULAR ATROPHY, TYPE I; and the identified mutation: is EX7-8DEL.
Seventy-two hours later, total cellular RNA was isolated from the treated cells and reverse transcribed into cDNA. SMN2 mRNA expression was assessed with RT-qPCR using primer pairs specific for SMN2FL or SMN2 Δ7. SMN2 mRNA expression was also assessed by semi-quantitative RT-PCR using a primer pair that amplifies both SMN2FL and SMN2 Δ7 followed by DdeI digestion (PCR/digestion). […] After digestion, both bands were reduced by 115 bp, resulting in two products: 392 bp (SMN2FL) and 338 bp (SMN2 Δ7) as shown on the gel of FIG. 3D. FIG. 3A-3D show dose-dependent changes in SMN2FL and SMNΔ7 mRNA as assessed by RT-qPCR and PCR/digestion respectively. FIG. 3E-3G are graphic plots of data from quantitating the intensity of bands in FIG. 3D.
SMA patient derived fibroblasts were obtained from Coriell Institute (Camden, N.J., USA), including GM00232 (SMA type I with 2 copies of SMN2 gene) and GM03813 (SMA type II with 3 copies of SMN2 gene). These cells were cultured at 5% C02 and 37° C. in modified MEM medium (Gibco, Thermo Fisher Scientific, Carlsbad, Calif.) supplemented with 15% bovine calf serum (Sigma-Aldrich), 1% NEAA (Gibco) and 1% penicillin/streptomycin (Gibco). To transfect oligonucleotides including saRNAs, siRNA and ASO, cells were seeded into 6-well plates at a density of 1×10^5 cells/well and were transfected with oligonucleotides at different concentrations using RNAiMax (Invitrogen, Carlsbad, Calif.) according to the reverse transfection protocol provided by the manufacturer for 72 hours (unless otherwise specified). For Risdiplam treatment of cells, Risdiplam (HY-109101, MedChem Express Company, Monmouth Junction, N.J., USA) dissolved in DMSO was added directly to cells at desired concentration for 72 hours unless specified otherwise.
For RNA isolation from cultured cells, total cellular RNA was isolated from treated cells using an RNeasy Plus Mini kit (Qiagen, Hilden, Germany) according to its manual. To isolated RNA from animal tissues, tissues were harvested and stored at RNA later (AM7021, Thermo Fisher). Total RNA was then isolated using MagPure Total RNA Micro LQ kit (Magen, R6621, China) by auto-pure96 machine (ALLSHENG, China). The resultant RNA (1 μg) was reverse transcribed into cDNA by using a PrimeScript RT kit containing gDNA Eraser (Takara, Shlga, Japan). The resultant cDNA was amplified in an ABI 7500 Fast Real-time PCR System (Applied Biosystems; Foster City, Calif.) using SYBR Premix Ex Taq 11 (Takara, Shlga, Japan) reagents and primers which specifically amplified full-length (SMN2FL) or A7 SMN2 mRNA (SMN2 Δ7) (FIG. 1). The reaction conditions were: 95° C. for 3 seconds (1 cycle) and 60° C. for 30 seconds (40 cycles). Amplification of TBP gene served as an internal control.

Row | Substance | SMN2FL mRNA fold change [fold] | SMN2 Δ7 mRNA fold change [fold]
1 | DS06-0031: saRNA targeting SMN2 promoter at -1266; SEQ ID NO: 478/479 (chain 1 UUGUACACUUGGUCAACAUTT; chain 2 AUGUUGACCAAGUGUACAATT; chemistry not given here) | 0.9 | 1.9
2 | DS06-0067: saRNA targeting SMN2 promoter at -293; SEQ ID NO: 480/481 (chain 1 CACUGGAGUUCGAGACGAGTT; chain 2 CUCGUCUCGAACUCCAGUGTT; chemistry not given here) | 1.3 | 2.4
